Measured values reported in patent US20140187505A1, “Cardiac Glycosides to Treat Cystic Fibrosis and Other IL-8 Dependent Disorders” (priority 2002, published 2014).
Several values for one entry are separate records, joined by “and”; a condition that tells them apart may be missing. Equal values may be shown once. Read-outs that look alike come from different tables or passages of the source.

Key:
[1] = for 70 kg man, cited from earlier work
[2] = test system: HeLa cervical cancer cells; details: human
[3] = eluent acetonitrile/water 45:55; cited from earlier work
[4] = test system: TNFa/NFkB signaling pathway; test: Reverse Phase Protein Microarrays of TNFa/NFkB pathway phosphorylation in IB3-1 cells; assay type: cell-based, human; details: IC-90 concentrations
From the text: Previously published data have implicated a dysfunctional TNFa/NFkB signaling pathway as responsible for the pro-inflammatory phenotype of the CF lung (Eidelman et al, 2001a). […] IC-90 means a concentration of drug that blocks 90% of IL-8 secretion from the IB3-1 cells. […] (See FIG. 1).

[5] = test system: clear cell renal carcinoma metastatic to the brain and spinal cord; details: human, in vivo
[6] = test system: Cystic Fibrosis IB-3 Lung Epithelial Cells; test: Secretion of proinflammatory mediators from IB-3 cells (ELISA, 24 hours); assay type: cell-based; details: Homo sapiens, Epithelial cell
[7] = mobile phase: methanol/water 30:70; cited from earlier work
[8] = test system: Human castration-resistant prostate cancer PC3 cells; test: EMT protein expression in PC3 cells (Western blot); assay type: cell-based; details: 24 hours, vehicle 100%
[9] = test system: rat PAIII castration-resistant prostate cancer cells; test: MicroRNA expression in cultured PAIII cells (TaqMan, DDCt); assay type: cell-based; details: 6 nM Digitoxin, 24 hours
[10] = test system: PAIII Castration Resistant Prostate Cancer cells; set-up: species or system Lobund-Wistar rats; details: rat, in vivo
[11] = test system: IL-6 and CINC1 (rat IL-8 equivalent); test: Serum IL-6 and CINC1 in rats bearing PAIII tumors; assay type: in vivo; details: digitoxin 0.03 mg/kg daily for 30 days, serum day 30
[12] = test system: guinea-pig heart Na^+-K^+-ATPase; details: cited from earlier work
[13] = test system: HeLa cervical cancer cells; test: cells; details: Homo sapiens, 24 h, read-out: IC50 dose for cell death
[14] = test system: IL-8 secretion from cystic fibrosis lung epithelial IB3-1 cells; details: Homo sapiens, IB3-1, 48 h
[15] = test system: rat PAIII castration resistant prostate cancer cells; test: EMT mRNA expression in cultured PAIII cells (FPKM); details: 6 nM Digitoxin, 24 hours
[16] = test system: collagen induced arthritis (CIA) mice; details: mouse, in vivo
[17] = test system: rat lungs infected with influenza; test: Cytokines and chemokines in lungs of influenza-infected cotton rats; assay type: in vivo; details: 3, 10 or 30 microgram/kg ip daily, lung harvested day 4
Experimental: Fifteen standard cotton rats were divided into five groups of three each. […] The rats in the treatment groups were pre-treated on the preceding day with either 3, 10, or 30 micro-g/kg intraperitoneally. […] Each rat was then treated on Day 1 with 100 microliters of Wuhan Strain influenza virus (titer-10^8 TC-IC 50/ml) (IC is […]) by intra-nasal administration to induce lung inflammation.
The rats were sacrificed on the last day 4 hrs after treatment.
Pieces of lung was harvested on day 4 and homogenized in PBS by glass-on-glass homogenizer in 1 gram/ml. Samples are frozen on dry ice, and then transferred to −80° C. for analysis. […] Rodents lack IL-8 and instead have GRO/KC and MIP-2. […] GM-CSF was undetectable in the tissue under any conditions.

[18] = test system: PAIII cancer cells; set-up: species or system Lobund-Wistar rats; details: rat, in vivo
[19] = octanol/water (20 mM TRIS-HCl, pH 7.4), cited from earlier work

SMILES: C[C@H]1O[C@@H](O[C@H]2[C@@H](O)C[C@H](O[C@H]3[C@@H](O)C[C@H](O[C@H]4CC[C@@]5(C)[C@H](CC[C@@H]6[C@@H]5CC[C@]5(C)[C@@H](C7=CC(=O)OC7)CC[C@]65O)C4)O[C@@H]3C)O[C@@H]2C)C[C@H](O)[C@@H]1O [digitoxin]
- Human toxicity limit [1]: 3036 nmol
- Human toxicity limit, Nmol/L = nM [1]: 45.4 nM
- Human toxicity limit ([1]; ouabain value is lethal dose): >2.5 mg
- Threshold concentration for an increase in cell death [2]: 70 to 100 nM
- K retentions for reversed-phase high pressure liquid chromatography [3]: 3.34
- Constitutive phosphorylation of IkBalpha and NFkB, p65 [4]: significantly suppressed
- Phosphorylation of IKKalpha [4]: modestly suppressed
- Clinical outcome of one cancer patient [5]: positive result
- activity at 0.01 µM ([6]; read-out: ICAM1 secretion, % of Control): 19%
- activity at 0.03 µM ([6]; read-out: ICAM1 secretion, % of control): 30%
- activity at 0.01 µM ([6]; read-out: IFN-gamma secretion, % of Control): 100%
- activity at 0.03 µM ([6]; read-out: IFN-gamma secretion, % of control): 35%
- activity at 0.01 µM ([6]; read-out: IL-1-beta secretion, % of Control): 50%
- activity at 0.03 µM ([6]; read-out: IL-1-beta secretion, % of control): 50%
- activity at 0.01 µM ([6]; read-out: IL-6 secretion, % of Control): 3%
- activity at 0.03 µM ([6]; read-out: IL-6 secretion, % of control): 0%
- activity at 0.01 µM ([6]; read-out: IL-8 secretion, % of Control): 2%
- activity at 0.03 µM ([6]; read-out: IL-8 secretion, % of control): 0%
- activity at 0.01 µM ([6]; read-out: IP-10 secretion, % of Control): 100%
- activity at 0.03 µM ([6]; read-out: IP-10 secretion, % of control): 100%
- activity at 0.01 µM ([6]; read-out: TNFalpha secretion, % of Control): 5%
- activity at 0.03 µM ([6]; read-out: TNFalpha secretion, % of control): 0%
- RM values (lipophilicity, reversed-phase thin layer chromatography) [7]: 1.37
- E-Cadherin % Band Intensity ([8]; Digitoxin 10 nM): 0%,
- SNAI1 % Band Intensity ([8]; Digitoxin 10 nM): 0%,
- Vimentin % Band Intensity ([8]; Digitoxin 10 nM): 0%,
- E-Cadherin % Band Intensity ([8]; Digitoxin 25 nM): 0%,
- SNAI1 % Band Intensity ([8]; Digitoxin 25 nM): 0%,
- Vimentin % Band Intensity ([8]; Digitoxin 25 nM): 0%,
- miR467b DDCt, Digitoxin - Vehicle [9]: 20.10
- miR-122 DDCt, Digitoxin - Vehicle [9]: 11.005
- miR-291a-3p DDCt, Digitoxin - Vehicle [9]: 19.13
- miR-347 DDCt, Digitoxin - Vehicle [9]: 4.34
- miR-376a DDCt, Digitoxin - Vehicle [9]: −32.75(↑)
- miR-380-3p DDCt, Digitoxin - Vehicle [9]: 16.57
- miR-411 DDCt, Digitoxin - Vehicle [9]: 4.61
- miR-667 DDCt, Digitoxin - Vehicle [9]: 7.01
- miR-670 DDCt, Digitoxin - Vehicle [9]: −12.11(↑)
- miR-879 DDCt, Digitoxin - Vehicle [9]: 11.31
- Diameter of metastasis, mm (median) [10]: 0.87 mm
- Number of Pleural Metastases (median) [10]: 16
- Weight of Primary Tumor, gm (median) [10]: 19.6 gm
- Serum Interleukin-6 (IL-6) ([11]; control 47.9 ± 14.1): 37.0 ± 16.9 pg/mL
- Serum CINC1/KC (rat IL-8 equivalent) ([11]; control 60.32 ± 20.6): 47.9 ± 14.4 pg/mL
- ID50 [12]: 0.31 ± 0.03 ×10^−4 mol l^−1
- IC50 [13]: ~200000 pM
- IC50 ([14]; read-out: IC50 nmol/L in cells): 0.9 nmol/L
- IC50 ([14]; read-out: IC50 (K50) for spontaneous IL-8 secretion): ~0.9 nmol/L
- FOXP3 mRNA % change [15]: −30%
- Hepatocyte Growth Factor mRNA % change [15]: −50%
- Igf2r mRNA % change [15]: −40%
- Vimentin mRNA % change [15]: −10%
- Zeb2 mRNA % change [15]: −30%
- Incidence of CIA (mice that developed symptoms) [16]: 50%
- Inflammatory focus (pannus-like) in metatarsal-phalangeal joints, histopathology [16]: absent
- Mean paw thickness [16]: decreased
- Severity of CIA (mean visual score) [16]: significant reduction
- GRO/KC in lung [17]: significant reductions
- IFNγ in lung [17]: significant reductions
- IL-13 in lung [17]: No significant changes
- MCP-1 in lung [17]: significant reductions
- MIP-2 in lung [17]: significant reductions
- TGFβ in lung [17]: No significant changes
- TNFa in lung [17]: significant reductions
- Diameter of metastatic foci, mm, (median) [18]: 1.76 mm
- Number of pleural metastatic foci (median) [18]: 122
- P (partition coefficient in octanol/water system) [19]: 670 and 680
- P (partition coefficient in octanol/water system) ([19]; listed as Digitoxin): 670.0 ± 105.0
